These are literature values, as cited in patent publication US20130195925A1, “ANTI AGING APPLICATION AND METHOD FOR TREATING AGING” (VASKIN, LLC, priority 2011, published 2013).

Structures are written as SMILES.

For data set [1] the following is noted: thought to be; compared with vitamin E.
In data set [2] the test system is UVB-induced pigmented skins of brownish guinea pigs. The conditions noted are these: 0.5% Glabridin solution applied topically; backs of brownish guinea pigs.
In data set [3] the test system is co-culture model of melanocytes and keratinocytes. To be noted: fluorochrome transfer, flow cytometry. In general terms: In flow cytometry, cells or beads pass a laser one at a time.
A further data set has as its system stem cell factor. The conditions noted are these: human keratinocyte cell culture.
A further data set concerns wounds. The conditions noted are these: solution containing 5%.
The conditions of data set [4]: in vivo.
For data set [5] the following is noted: in vivo. This is another data set of the same source.

In the case of `O=C(O[C@@H]1Cc2c(O)cc(O)cc2O[C@@H]1c1cc(O)c(O)c(O)c1)c1cc(O)c(O)c(O)c1` [EGCG, Epigallocatechin galate], in data set [1], the “power for neutralizing free radicals relative to vitamin E” value was 200 times.

Take `CC1(C)C=Cc2c(ccc3c2OC[C@@H](c2ccc(O)cc2O)C3)O1` [Glabridin]: the “pigmentation induced by UVB radiation” value in data set [2] is given as “significantly reduced pigmentation”.

For `NC(=O)c1cccnc1` [Niacinamide], in data set [3], the “downregulation of the amount of melanosomes transferred” value is listed as 35%-68%.

In the case of `COc1cc(CCC(=O)CC(=O)CCc2ccc(O)c(OC)c2)ccc1O` [Tetrahydrocurcumin], the “safety for topical use” value is “no irritant or sensitization side effects”.

Take `C=CCCCCCCCCC(=O)N[C@@H](Cc1ccccc1)C(=O)O` [Undecylenoyl phenylalanine]: in the data set with stem cell factor, the “gene expression and protein release of stem cell factor” value is given as “suppresses”.

On to `CC(=O)Oc1c(C)c(C)c2c(c1C)CCC(C)(CCC[C@H](C)CCC[C@H](C)CCCC(C)C)O2` (some centres unmarked) [Vitamin E acetate, Tocopheryl acetate], for which the wound healing time result with wounds is “decreased the healing time required”.

Turning to `O=c1cc(CO)occ1O` [kojic acid], the carcinogenic properties result in data set [4] is given as “may have some carcinogenic properties”. Moreover, in data set [5], the dermatitis entry was “can lead to dermatitis in some people”.
